According to patent US5223526A, “Pyrazole carboxanilide fungicides and use” (Monsanto Company, priority 1992, dated 1993):

Experiments:
Rhizoctonia solani = experiment: Rice sheath blight; assay type: in vivo; parameters: scale not given here; settings: inoculated two days later, rated after 7 days, average of five plants; for Disease Control Rating at 0.02 mg/mL: foliage and soil sprayed with 0.02 mg/mL; for Disease Control Rating at 0.1 mg/mL: foliage and soil sprayed with 0.1 mg/mL; for Disease Control Rating at 0.5 mg/mL: foliage and soil sprayed with 0.5 mg/mL
Description: Rice plants, 11 to 15 days old, are grown in 7.65 cm^2 pots. Each plant in the treatment groups is treated by spraying both the foliage and the soil surface, each with 2 mL of a water/acetone/Tween®20 formulation containing 0.5, 0.1, or 0.02 mg/mL of Compound A. The pots are placed in flood trays which are filled with water to just below the soil line. Two days later, approximately two grams of Rhizoctonia solani inoculum, cultured on rice grain for four to eight weeks, is applied to the base of the rice plants in each pot. After 7 days in a 25° C. high humidity growth chamber, each plant is evaluated for the level of disease contro as compared to untreated controls by the following scale and the average of five plants per treatment level is calculated.

Botrytis cinerea [1] = experiment: Eggplant grey mold; assay type: in vivo; parameters: scale not given here; settings: inoculated 24 h later, rated after 3-4 days; for Disease Control Rating at 20 ppm: eggplant sprayed with 20 ppm; for Disease Control Rating at 100 ppm: eggplant sprayed with 100 ppm; for Disease Control Rating at 500 ppm: eggplant sprayed with 500 ppm
Description: Eggplant seed are planted in 2.25" square pots, six per pot, and maintained in growth chambers set at 23° C., 80% humidity, and 12 h photoperiod. When the plants are at the cotyledon stage (14-18 days afterplanting), the plants are sprayed with 1.5 mL/pot of 500, 100 or 20 ppm 2:3 acetone:water (with 0.5% Tween® 20) formulations of the test compounds.
Twenty-four hours later the plants are inoculated with Botrytis cinerea, approximately 0.5 mL/pot of a 4×10^6 spore/mL suspension. The plantes are incubated at 23° C. and 100% humidity for 3-4 days, at which time disease control ratings are made based on presence and severity of Botrytis lesions.

succinate dehydrogenase = target: T1, succinate dehydrogenase (Botrytis cinerea, UniProt A0A384J5E4+A0A384J8V8+A0A384JHJ5); experiment: Enzyme inhibition: succinate dehydrogenase activity in Botrytis cinerea mitochondria (DCPIP reduction); assay type: biochemical; settings: concentration required to inhibit the rate of DCPIP reduction by 50%; Botrytis cinerea isolate Nick mitochondria; read-out: I50 (μM conc.)
T1 construct: succinate-DCPIP reductase assay with KCN
T1 sequence (A0A384J5E4 1-300): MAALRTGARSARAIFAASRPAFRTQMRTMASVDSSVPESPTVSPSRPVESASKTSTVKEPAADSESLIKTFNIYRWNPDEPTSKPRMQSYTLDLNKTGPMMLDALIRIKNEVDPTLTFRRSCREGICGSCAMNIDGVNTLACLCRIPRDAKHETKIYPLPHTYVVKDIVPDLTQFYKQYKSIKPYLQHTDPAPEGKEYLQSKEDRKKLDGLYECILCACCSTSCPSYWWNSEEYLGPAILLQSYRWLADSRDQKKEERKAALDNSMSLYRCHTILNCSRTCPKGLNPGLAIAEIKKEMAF
T1 sequence (A0A384J8V8 1-189): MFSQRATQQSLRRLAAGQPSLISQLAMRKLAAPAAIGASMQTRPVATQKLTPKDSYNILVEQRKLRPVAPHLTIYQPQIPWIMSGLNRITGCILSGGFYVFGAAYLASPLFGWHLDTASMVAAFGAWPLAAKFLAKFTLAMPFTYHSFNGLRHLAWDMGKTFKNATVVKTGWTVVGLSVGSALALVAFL
T1 sequence (A0A384JHJ5 1-192): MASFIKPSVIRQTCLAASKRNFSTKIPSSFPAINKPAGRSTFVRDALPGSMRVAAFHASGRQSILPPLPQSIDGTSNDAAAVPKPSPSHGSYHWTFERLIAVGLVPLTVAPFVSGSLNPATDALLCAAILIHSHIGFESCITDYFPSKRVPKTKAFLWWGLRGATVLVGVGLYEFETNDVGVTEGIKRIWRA
T1 sequence (A0A384K456 1-647 partner): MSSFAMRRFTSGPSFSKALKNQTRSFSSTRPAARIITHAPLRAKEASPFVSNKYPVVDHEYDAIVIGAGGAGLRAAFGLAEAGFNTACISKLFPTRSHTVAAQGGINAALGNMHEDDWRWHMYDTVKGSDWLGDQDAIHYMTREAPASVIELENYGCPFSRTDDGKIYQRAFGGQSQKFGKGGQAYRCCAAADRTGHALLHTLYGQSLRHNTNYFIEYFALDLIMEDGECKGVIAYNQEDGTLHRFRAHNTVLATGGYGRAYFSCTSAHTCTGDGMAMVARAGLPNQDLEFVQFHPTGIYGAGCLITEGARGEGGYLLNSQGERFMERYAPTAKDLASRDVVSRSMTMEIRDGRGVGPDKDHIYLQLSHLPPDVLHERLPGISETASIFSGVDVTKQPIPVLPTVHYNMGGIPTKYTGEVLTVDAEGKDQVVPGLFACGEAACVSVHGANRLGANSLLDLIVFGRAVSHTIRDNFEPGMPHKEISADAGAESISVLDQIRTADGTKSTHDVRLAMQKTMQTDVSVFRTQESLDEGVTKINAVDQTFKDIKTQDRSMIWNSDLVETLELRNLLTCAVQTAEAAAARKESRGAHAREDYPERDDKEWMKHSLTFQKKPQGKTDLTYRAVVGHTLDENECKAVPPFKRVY
Description: Mitochondria were isolated by a method adapted from G.A. White [Biochem. Biophys. Res. Commun. 44: 1212, 1971]. Twenty to thirty grams of Botrytis cinerea isolate Nick were resuspended in 250 mL 0.25M sucrose, 5mM Na4 EDTA, pH 7.0 (+) 0.15% (w/v) bovine serum albumin (BSA) and placed in a Bead Beater chamber (Biospec Products, Bartlesville, Ok.). Zirconium oxide beads (0.5mm) were added to finish filling the chamber. Four 30 second beats separated by 2 minute temperature equilibration periods in the cold were used to break the mycelia. A crude mitochondrial preparation was harvested from the homogenate by differential centrifugation at 4° C. and resuspended in BSA-free sucrose/EDTA media and used for SDH assays.
The succinate dehydrogenase activity was measured at 600 nm in 50 mM potassium phosphate, pH 7.2, 1 mM KCN, 45 μM 2,6-dichlorophenolindophenol (DCPIP) and 17 mM disodium succinate (final volume, 1 mL) with a Perkin-Elmer Lambda 7 ultraviolet-visible spectrophotometer. The test compounds were added as acetone solutions (final concentration of acetone, 1% (v/v)). The mitochondrial preparatons were used to initiate the reaction. All rates were corrected for endogenous activities minus succinate. Semilog plots of percentage inhibition versus test compound concentration were used to determine inhibition expressed as I50 (μM) which is the concentration required to inhibit the rate of DCPIP reduction by 50%. The commercial fungicide carboxin was used as standard throughout.

Botrytis cinerea [2] = experiment: Vine grey mold (grape berries); assay type: in vivo; settings: average of six berries, 7-10 days; for pest or weed control at 50 ppm: grape berries treated with 50 ppm, read-out: % DISEASE CONTROL 50 ppm; for pest or weed control at 200 ppm: grape berries treated with 200 ppm, read-out: % DISEASE CONTROL 200 ppm
Description: Grape berries, which have been washed and surfaced sterilized in 70% ethanol for one minute, are, except for the negative controls, treated with 0.2 mL of a 2:3 acetone/water formulation (containing 0.05% Tween® 20) of 200 or 50 ppm of the test compounds and placed one per well in 12-well plates. Six berries per treatment level are used. Twenty-four hours later each berry is inoculated with Botrytis cinerea conidia, 0.2 mL of 10^6 spores/mL suspension. The plates are incubated at 20° C. with a 12 hours photoperiod for 7-10 days and the percent surface area infected with the disease is determined for each replicate using the values of 0, 1, 2, 5, 7, 10, 15, 20, 25, 30, 35, 40, 45, 50, 55, 60, 65, 70, 75, 80, 85, 90, 95, and 100%. Treatment means are calculated and percent disease control is determined by the formula [(control mean - treatment mean)/control means]×100.
Some of the compounds have been tested more than once and the results shown are the average of the number of tests reported.

SMILES	Disease Control Rating at 0.02 mg/mL (Rhizoctonia solani)	Disease Control Rating at 0.1 mg/mL (Rhizoctonia solani)	Disease Control Rating at 0.5 mg/mL (Rhizoctonia solani)	Disease Control Rating at 20 ppm (Botrytis cinerea [1])	Disease Control Rating at 100 ppm (Botrytis cinerea [1])	Disease Control Rating at 500 ppm (Botrytis cinerea [1])	IC50 (succinate dehydrogenase)	pest or weed control at 50 ppm (Botrytis cinerea [2])	pest or weed control at 200 ppm (Botrytis cinerea [2])
Cn1cc(C(=O)Nc2ccccc2C=C2CCCCC2)c(C(F)F)n1 [Example 116, 1H-pyrazole-4-carboxamide, N-[2-(cyclohexylidenemethyl)phenyl]-3-(difluoromethyl)-1-methyl-]	1	1	3	0	0	1	0.048 µM	21%	68%
C=CCn1cc(C(=O)Nc2ccccc2C2CCCCC2)c(C(F)F)n1 [Example 14, 1H-pyrazole-4-carboxamide, N-(2-cyclohexylphenyl)-3-(difluoromethyl)-1-(2-propenyl)-]	–	–	1	–	–	0	0.29 µM	0%	0%
Cn1cc(C(=O)Nc2ccccc2O[C@H]2C[C@H]3CC[C@@H]2C3)c(C(F)F)n1 (relative stereo) [Example 82, 1H-pyrazole-4-carboxamide, N-[2-(bicyclo[2.2.1]hept-2-yloxy)-phenyl]-3-(difluoromethyl)-1-methyl-, endo-]	3	3	3	–	–	0	0.065 µM	0%	0%
Cn1cc(C(=O)Nc2cc(Cl)ccc2C2CCCCC2)c(C(F)(F)F)n1 [Example 94, 1H-pyrazole-4-carboxamide, N-(5-chloro-2-cyclohexylphenyl)-1-methyl-3-(trifluoromethyl)-]	–	–	0	–	–	0	0.074 µM	0%	0%
Cn1cc(C(=S)Nc2ccccc2C2CCCCCC2)c(C(F)(F)F)n1 [Example 78, 1H-pyrazole-4-carbothioamide, N-(2-cycloheptylphenyl)-3-(trifluoromethyl)-1-methyl]	–	–	0	1	1	2	8.7 µM	35%	35%
Cc1nn(C)cc1C(=O)Nc1ccccc1C1CCCCCCC1 [Example 41, 1H-pyrazole-4-carboxamide, N-(2-cyclooctylphenyl)-1,3-dimethyl-]	1	3	3	0	0	3	0.021 µM	34%	37%
Cn1cc(C(=O)Nc2ccccc2C2CCCCC2)c(C#N)n1 [Example 4, 1H-pyrazole-4-carboxamide, 3-cyano-N-(2-cyclohexylphenyl)-1-methyl-]	–	–	0	1	2	2	0.065 µM	29%	58%
Cn1cc(C(=O)Nc2ccccc2OCCC2CCCC2)c(C(F)F)n1 [Example 54, 1H-pyrazole-4-carboxamide, N-[2-(2-cyclopentylethoxy)phenyl]-3-(difluoromethyl)-1-methyl-]	–	–	2	–	–	0	0.011 µM	2%	2%
Cn1cc(C(=O)Nc2ccccc2C2CCCCCC2)c(Br)n1 [Example 63, 1H-pyrazole-4-carboxamide, 3-bromo-N-(2-cycloheptylphenyl)-1-methyl-]	2	3	3	–	–	1	0.0063 µM	34%	65%
